Laboratory results published in paper PMC8162437, “Copper-mediated peptide arylation selective for the N-terminus” (Chemical Science, 2020).
Starred links: 1 amine or outer side, 2 acyl side, 3 side chain; linkers in the order of their positions; H or OH if unused. Non-standard residues stand in square brackets, D forms with d. Residues, ends and D or L forms follow the SMILES beside them. X1 = CNS(=O)(=O)c1ccccc1N([C@H](C(=O)[*:2])C(C)C)[*:1]

Tested on: Pfu aminopeptidase I
Conditions: 100 μM 5, 40 μM 5a, 0.08 μg mL−1 aminopeptidase I, 20 μM Co(OAc)2, NaOAc buffer 5 mM, pH 6.0, 95 °C, quenched with EDTA, RP-HPLC at 220 and 310 nm, internal standard 19, starting material peak area compared with 0 h
Description: (b) RP-HPLC analysis of the enzymatic degradation of angiotensin IV (5) and arylated angiotensin IV (5a) with aminopeptidase I. Conditions: 100 μM 5, 40 μM 5a, 0.08 μg mL^−1 aminopeptidase I, and 20 μM Co(OAc)2 in NaOAc buffer (5 mM, pH = 6.0) at 95 °C. Internal standard 19 for quantification. (c) Peptidase activity: time course for aminopeptidease I cleavage of arylated angiotensin IV (5a, orange) and angiotensin IV (5, blue).
We decided to investigate whether the charge and structural perturbation afforded by the N-arylation engendered peptide stability towards enzymatic degradation.
Enzymatic Degradation with Aminopeptidase I
Stability Test of Peptides to Aminopeptidase I
1.7 mM in 20% aq. MeCN) and Co(OAc)2 (50 µL, 200 µM in H2O) in NaOAc buffer (338 µL, 5 mM,
pH = 6.0) was added aminopeptidase I (75 µL, 0.5 mg/mL in Tris buffer (50 mM, pH = 6.0). A 50 -
µL aliquot was immediately removed after addition of the enzyme and was quenched with EDTA
(5 µL, 1 M in H2O). Internal standard 2-amino-N,N’-dimethylbenzenesulfonamide 19 was added
(1.5 μL, 4 mM in DMSO) and the 0 h timepoint was analyzed by RP-HPLC (20-60% MeCN over
28 min) at 220 nm and 310 nm. The reaction mixture was then heated to 95 °C and 50-µL aliquots
were removed and quenched with EDTA (5 µL, 1 M in H2O) at 10 min, 30 min, 1 h, and 2 h. After
quenching, the internal standard 19 was added (1.5 μL, 4 mM in DMSO) and analyzed by RP- […]

Row | Compound | Stability towards enzymatic degradation by aminopeptidase I, after 10 minutes (10 min) | Stability towards enzymatic degradation by aminopeptidase I, after 2 h incubation (2 h)
1 | CC[C@H](C)[C@H](NC(=O)[C@H](Cc1ccc(O)cc1)NC(=O)[C@@H](N)C(C)C)C(=O)N[C@@H](Cc1cnc[nH]1)C(=O)N1CCC[C@H]1C(=O)N[C@@H](Cc1ccccc1)C(=O)O [compound 5, Angiotensin IV] | completely consumed | –
2 | CC[C@H](C)[C@H](NC(=O)[C@H](Cc1ccc(O)cc1)NC(=O)[C@@H](Nc1ccccc1S(=O)(=O)NC)C(C)C)C(=O)N[C@@H](Cc1c[nH]cn1)C(=O)N1CCC[C@H]1C(=O)N[C@@H](Cc1ccccc1)C(=O)O [5a] (H-[X1]YIHPF-OH) | – | remained stable
